According to ChEMBL document CHEMBL1811803, “Preparation of allosamidin and demethylallosamidin photoaffinity probes and analysis of allosamidin-binding proteins in asthmatic mice” (Bioorg Med Chem, 2011):
Calls of active or inactive are those of the source. The rule behind the calls is not given here.

Assays:
[1] = Inhibition of Trichoderma chitinase T1 using [4MU-(GlcNAc)3] as substrate
[2] = system: Alpha-1-antiproteinase (Mus musculus); test: Binding affinity to alpha-1 antitrypsin in IL-13-induced asthmatic A/J mouse BAL fluid after 1 hrs by photoaffinity labeling study
[3] = target: Chitinase-like protein 3 (Mus musculus) (UniProt O35744); test: Binding affinity to Ym1 in IL-13-induced asthmatic A/J mouse BAL fluid after 1 hrs by photoaffinity labeling study
[4] = target: Chitinase-like protein 3 (Mus musculus) (UniProt O35744); test: Binding affinity to recombinant His-tagged mouse Ym1 expressed in Escherichia coli after 1 hrs by photoaffinity labeling study
[5] = Stability of the compound in 0.05 M NaOH for 30 mins at room temperature; format: physicochemical; conditions: 0.5 h
[6] = Stability of the compound in 0.05 M HCl for 30 mins at room temperature; format: physicochemical; conditions: buffer, 0.5 h

Chitinase-like protein 3 (Mus musculus), sequence (O35744 whole entry): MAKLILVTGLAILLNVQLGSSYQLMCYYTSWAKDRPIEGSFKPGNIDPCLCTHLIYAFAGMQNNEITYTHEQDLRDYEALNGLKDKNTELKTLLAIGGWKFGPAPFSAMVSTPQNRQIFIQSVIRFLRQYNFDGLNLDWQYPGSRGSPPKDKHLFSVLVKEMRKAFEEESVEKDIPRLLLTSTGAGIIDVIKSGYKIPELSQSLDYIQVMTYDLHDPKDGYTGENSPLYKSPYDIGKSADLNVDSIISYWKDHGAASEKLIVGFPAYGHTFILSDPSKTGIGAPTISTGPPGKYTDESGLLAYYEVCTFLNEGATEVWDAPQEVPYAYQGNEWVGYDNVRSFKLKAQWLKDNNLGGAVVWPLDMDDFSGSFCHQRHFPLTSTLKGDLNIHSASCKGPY

Structure (SMILES) | IC50 [1] [µM] | other results
CNC1=N[C@@H]2[C@@H](O)[C@H](O[C@@H]3O[C@H](CO)[C@@H](O[C@@H]4O[C@H](CO)[C@@H](O)[C@@H](O)[C@H]4NC(C)=O)[C@@H](O)[C@H]3NC(=O)CCSSCCNC(=O)CCCCC3SCC4NC(=O)NC43)[C@@H](CO)[C@@H]2O1 (some centres not stated) | 49.7 | –
CC(=O)N[C@H]1[C@H](O[C@H]2[C@H](O)[C@H]3N=C(N(C)C)O[C@H]3[C@@H]2CO)O[C@H](CO)[C@@H](O[C@@H]2O[C@H](CO)[C@@H](O)[C@@H](O)[C@H]2NC(=O)CCSSCCNC(=O)C(CCCCNC(=O)CCCCC2SCC3NC(=O)NC32)NC(=O)c2ccc(N=[NH+][NH-])cc2)[C@H]1O (some centres not stated) | 10.7 | Activity [2]: Active; Activity [3]: Active; Activity [4]: Active
CNC1=N[C@@H]2[C@@H](O)[C@H](O[C@@H]3O[C@H](CO)[C@@H](O[C@@H]4O[C@H](CO)[C@@H](O)[C@@H](O)[C@H]4NC(=O)CCSSCCNC(=O)CCCCC4SCC5NC(=O)NC54)[C@@H](O)[C@H]3NC(C)=O)[C@@H](CO)[C@@H]2O1 (some centres not stated) | 7.9 | –
CC(=O)N[C@H]1[C@H](O[C@H]2[C@@H](O)[C@@H](NC(=O)CCSSCCNC(=O)CCCCC3SCC4NC(=O)NC43)[C@H](O[C@H]3[C@H](O)[C@H]4N=C(N(C)C)O[C@H]4[C@@H]3CO)O[C@@H]2CO)O[C@H](CO)[C@@H](O)[C@H]1O (some centres not stated) | 50.3 | –
CNC1=N[C@@H]2[C@@H](O)[C@H](O[C@@H]3O[C@H](CO)[C@@H](O[C@@H]4O[C@H](CO)[C@@H](O)[C@@H](O)[C@H]4N)[C@@H](O)[C@H]3NC(C)=O)[C@@H](CO)[C@@H]2O1 | 82.9 | –
CC(=O)N[C@H]1[C@H](O[C@H]2[C@@H](O)[C@@H](NC(=O)CCSSCCNC(=O)C(CCCCNC(=O)CCCCC3SCC4NC(=O)NC43)NC(=O)c3ccc(N=[NH+][NH-])cc3)[C@H](O[C@H]3[C@H](O)[C@H]4N=C(N(C)C)O[C@H]4[C@@H]3CO)O[C@@H]2CO)O[C@H](CO)[C@@H](O)[C@H]1O (some centres not stated) | 125 | –
CNC1=N[C@@H]2[C@@H](O)[C@H](O[C@@H]3O[C@H](CO)[C@@H](O[C@@H]4O[C@H](CO)[C@@H](O)[C@@H](O)[C@H]4NC(C)=O)[C@@H](O)[C@H]3NC(=O)CCSSCCNC(=O)C(CCCCNC(=O)CCCCC3SCC4NC(=O)NC43)NC(=O)c3ccc(N=[NH+][NH-])cc3)[C@@H](CO)[C@@H]2O1 (some centres not stated) | 155 | –
CC(=O)N[C@H]1[C@H](O[C@H]2[C@@H](O)[C@@H](NC(C)=O)[C@H](O[C@H]3[C@H](O)[C@H]4N=C(N(C)C)O[C@H]4[C@@H]3CO)O[C@@H]2CO)O[C@H](CO)[C@@H](O)[C@H]1O [ALLOSAMIDIN] | 5.4 | –
CC(=O)N[C@H]1[C@H](O[C@H]2[C@H](O)[C@H]3N=C(N(C)C)O[C@H]3[C@@H]2CO)O[C@H](CO)[C@@H](O[C@@H]2O[C@H](CO)[C@@H](O)[C@@H](O)[C@H]2N)[C@H]1O | 34.3 | –
CC(=O)N[C@H]1[C@H](O[C@H]2[C@H](O)[C@H]3N=C(N(C)C)O[C@H]3[C@@H]2CO)O[C@H](CO)[C@@H](O[C@@H]2O[C@H](CO)[C@@H](O)[C@@H](O)[C@H]2NC(=O)CCSSCCNC(=O)CCCCC2SCC3NC(=O)NC32)[C@H]1O (some centres not stated) | 3.6 | Stability [5]: Stable; Stability [6]: Stable
CNC1=N[C@@H]2[C@@H](O)[C@H](O[C@@H]3O[C@H](CO)[C@@H](O[C@@H]4O[C@H](CO)[C@@H](O)[C@@H](O)[C@H]4NC(=O)CCSSCCNC(=O)C(CCCCNC(=O)CCCCC4SCC5NC(=O)NC54)NC(=O)c4ccc(N=[NH+][NH-])cc4)[C@@H](O)[C@H]3NC(C)=O)[C@@H](CO)[C@@H]2O1 (some centres not stated) | 7.7 | Activity [2]: Active; Activity [3]: Active; Activity [4]: Active
CNC1=N[C@@H]2[C@@H](O)[C@H](O[C@@H]3O[C@H](CO)[C@@H](O[C@@H]4O[C@H](CO)[C@@H](O)[C@@H](O)[C@H]4NC(C)=O)[C@@H](O)[C@H]3NC(C)=O)[C@@H](CO)[C@@H]2O1 [DEMETHYLALLOSAMIDIN] | 10.3 | –
CNC1=N[C@@H]2[C@@H](O)[C@H](O[C@@H]3O[C@H](CO)[C@@H](O[C@@H]4O[C@H](CO)[C@@H](O)[C@@H](O)[C@H]4NC(C)=O)[C@@H](O)[C@H]3N)[C@@H](CO)[C@@H]2O1 | 308 | –
CC(=O)N[C@H]1[C@H](O[C@H]2[C@@H](O)[C@@H](N)[C@H](O[C@H]3[C@H](O)[C@H]4N=C(N(C)C)O[C@H]4[C@@H]3CO)O[C@@H]2CO)O[C@H](CO)[C@@H](O)[C@H]1O | 69.3 | –
